Experimental data reported in patent publication US9867795B2, “Nitrated lipids and methods of making and using thereof” (The UAB Research Foundation, priority 2004, dated 2018).

Experiments:
NF-kB pathways = assay: NF-kB pathway activity (NFkB-response element luciferase reporter, IkB degradation); type: cell-based; conditions: reporter in response to TNFa; IkB degradation in response to E. coli LPS
[1] = Hydrophobic stabilization and micellar partition of LNO2; type: physicochemical
From the text: The formation of •NO was followed by EPR (measuring cPTI formation) in the presence of different concentrations of octyl-β-glucopyranoside (OG) and octyl-thio-β-glucopyranoside (OTG). The rate of •NO release was constant and not influenced by these detergents until the critical micellar concentration (CMC) for each was achieved, after which •NO formation was inhibited as the volume of the hydrophobic environment increased (FIG. 24A). Similar results were obtained when measuring •NO formation via conversion of oxymyoglobin to metmyoglobin. Apparent •NO release rates remained constant until OG concentration reached ˜2.8 mg/ml (CMC=2.77 mg/ml (11)). […] The inhibition of the NO2 group loss at 268 nm was paralleled by inhibition of the formation of oxidation products at 320 nm, similarly paralleling the detergent-induced inhibition of •NO release observed by EPR and oxymyoglobin-based detection.
Thus, a plot of 1/v vs. α will yield a linear plot with slope divided by y-axis intercept equal to K−1.

[2] = target: T1, progesterone receptor (PR) (Homo sapiens, UniProt P06401); assay: CV-1 Gal4 ligand binding domain luciferase reporter assay; type: cell-based; conditions: LNO2 1 μM; CV-1 cells
T1 construct: expressed in transfected cells; host or cells: CV-1 cells
T1 sequence (P06401 679-913 limits assumed): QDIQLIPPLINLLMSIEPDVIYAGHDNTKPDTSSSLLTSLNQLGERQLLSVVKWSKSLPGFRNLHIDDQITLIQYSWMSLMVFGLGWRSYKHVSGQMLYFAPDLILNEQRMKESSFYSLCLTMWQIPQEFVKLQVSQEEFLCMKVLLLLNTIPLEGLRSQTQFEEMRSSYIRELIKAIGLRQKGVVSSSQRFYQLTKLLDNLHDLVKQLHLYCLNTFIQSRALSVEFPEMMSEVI
Procedure: (§1) Cell Transient Transfection Assay. CV-1 cells from ATCC (Manassas, Va.) were grown to ˜85% confluence in DMEM/F12 supplemented with 10% FBS, 1% penicillin-streptomycin. Then, cells were transiently co-transfected with a plasmid containing the luciferase gene under regulation by four Gal4 DNA binding elements (UASG×4 TK-Luciferase, a gift from Dr. Ronald M. Evans), in concert with plasmids containing the ligand binding domain for the different nuclear receptors fused to the Gal4 DNA binding domain. For assessing full-length PPAR receptors, CV-1 cells were transiently co-transfected with a plasmid containing the luciferase gene under the control of three tandem PPAR response elements (PPRE) (PPRE×3 TK-Luciferase) and hPPARγ, hPPARα or hPPARδ expression plasmids, respectively. In all cases, fluorescence protein (GFP) expression plasmid was co-transfected as the control for the transfection efficiency. Twenty-four hours after the transfection, cells were cultured for another 24 hours in Optium-MEM (Invitrogen, Carlsbad, Calif.). Then, cells were treated with different compounds as indicated in figures for 24 hours in Optium-MEM. Reporter luciferase assay kits from Promega (Madison, Wis.) were used to measure the luciferase activity according to the manufacturer's instructions with a luminometer (Victor II, Perkin-Elmer). Luciferase activity was normalized by GFP units. Each condition was performed at least in triplicates in each experiment.

[3] = target: T2, mineralocorticoid receptor (MR) (Homo sapiens, UniProt P08235); assay: as above; type: cell-based; conditions: LNO2 1 μM; CV-1 cells
T2 construct: expressed in transfected cells; host or cells: CV-1 cells
T2 sequence (P08235 726-964 limits assumed): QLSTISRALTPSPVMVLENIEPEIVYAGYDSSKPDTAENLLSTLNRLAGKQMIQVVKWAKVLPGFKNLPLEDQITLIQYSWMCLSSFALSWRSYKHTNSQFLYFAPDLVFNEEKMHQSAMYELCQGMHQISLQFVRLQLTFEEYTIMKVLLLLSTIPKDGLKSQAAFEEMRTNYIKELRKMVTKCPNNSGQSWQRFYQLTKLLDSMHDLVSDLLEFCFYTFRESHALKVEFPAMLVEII
Procedure: as §1

[4] = target: T3, retinoic X receptor α (RXRα) (Homo sapiens, UniProt P19793); assay: as above; type: cell-based; conditions: LNO2 1 μM; CV-1 cells
T3 construct: expressed in transfected cells; host or cells: CV-1 cells
T3 sequence (P19793 227-458 limits assumed): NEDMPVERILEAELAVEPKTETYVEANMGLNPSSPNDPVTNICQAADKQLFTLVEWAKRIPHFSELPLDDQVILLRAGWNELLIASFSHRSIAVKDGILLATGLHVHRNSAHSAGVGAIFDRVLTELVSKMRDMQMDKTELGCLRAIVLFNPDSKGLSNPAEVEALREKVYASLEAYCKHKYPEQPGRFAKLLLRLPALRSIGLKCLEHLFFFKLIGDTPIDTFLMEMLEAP
Procedure: as §1

hPPARδ = target: T4, hPPARδ (Homo sapiens, UniProt Q03181); assay: CV-1 PPRE×3 TK-Luciferase transient transfection assay; type: cell-based; conditions: PPRE reporter, CV-1 cells
T4 construct: For assessing full-length PPAR receptors, CV-1 cells were transiently co-transfected; expressed in transfected cells; host or cells: CV-1 cells
T4 sequence (Q03181 1-441): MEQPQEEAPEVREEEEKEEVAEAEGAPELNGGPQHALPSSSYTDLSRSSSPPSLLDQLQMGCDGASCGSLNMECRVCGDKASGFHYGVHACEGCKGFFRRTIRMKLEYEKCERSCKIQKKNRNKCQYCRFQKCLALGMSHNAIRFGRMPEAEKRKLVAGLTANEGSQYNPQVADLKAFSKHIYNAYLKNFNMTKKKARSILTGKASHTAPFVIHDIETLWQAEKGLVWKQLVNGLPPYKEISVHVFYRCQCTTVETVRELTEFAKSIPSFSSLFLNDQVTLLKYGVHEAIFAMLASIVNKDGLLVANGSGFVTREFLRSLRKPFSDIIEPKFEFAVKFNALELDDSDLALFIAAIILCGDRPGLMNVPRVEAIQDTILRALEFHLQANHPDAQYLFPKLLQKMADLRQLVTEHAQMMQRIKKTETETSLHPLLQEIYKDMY
Procedure: as §1, with “Reporter luciferase assay kits from Promega (Madison, Wis.) were used to measure the luciferase activity according to the manufacturer's instructions with a luminometer (Victor II, Perkin-Elmer). Luciferase activity was normalized by GFP units. Each condition was performed at least in triplicates in each experiment.” left out
PPAR transient transfection assay. […] In all cases, fluorescence protein (GFP) expression plasmid was co-transfected as the control for transfection efficiency. […]

Substance	activity of NF-kB pathways (NF-kB pathways)	partition coefficient K ([1]; FIG. 28 legend)	stability in organic solvents ([1]; organic solvents such as n-octanol)	PR receptor activation [2]	MR receptor activation [3]	RXRα receptor activation [4]	concentration at which PPARδ activation is significantly different from vehicle (hPPARδ; FIG. 17 legend)	concentration at which PPARδ shows significant activation (hPPARδ; text of Example 3)
10-nitro-9,12-octadecadienoic acid and 12-nitro-9,12-octadecadienoic acid [LNO2]	inhibits activity of NF-kB pathways	~1500	stable	no impact	no impact	no impact	–	–
9- and 10-nitro-9-cis-octadecenoic acid [OA-NO2]	–	–	–	–	–	–	1 µM	~300 nM
